Reference: patent publication US20120076766A1, “Topical drug delivery system with dual carriers” (priority 2010, published 2012)

Experiments:
[1] = test system: HL-60 cells; details: cited from earlier work
[2] = test system: MRSA; assay: Study III: human field study, diabetic foot lesion with cellulitus; assay type: in vivo; details: IV, for MRSA, 8 days following admission
Description: In this embodiment, the additional ingredient to hasten a third therapeutic tissue healing effect was added. This embodiment used vitamin D in a small but medically efficacious amount.

Compound | amount at which results (desired cellular responses) occurred [1] | patient response to treatment [2] | subsequent retinoid-induced TGM2 expression ([1]; priming of the cells by pretreatment)
C[S+](C)[O-] [DMSO, dimethyl sulfoxide] | less than 2% |  | 
CN[C@H](CC(C)C)C(=O)N[C@H]1C(=O)N[C@@H](CC(N)=O)C(=O)N[C@H]2C(=O)N[C@H]3C(=O)N[C@H](C(=O)N[C@H](C(=O)O)c4cc(O)cc(O)c4-c4cc3ccc4O)[C@H](O)c3ccc(c(Cl)c3)Oc3cc2cc(c3O[C@@H]2O[C@H](CO)[C@@H](O)[C@H](O)[C@H]2O[C@H]2C[C@](C)(N)[C@H](O)[C@H](C)O2)Oc2ccc(cc2Cl)[C@H]1O [vancomycin, Vancomycin] |  | did not respond | 
vitamin D | about 100 nM |  | increases
